The values below come from patent US20250235543A1, “MODIFIED PROTEINS AND PROTEIN DEGRADERS” (Cullgen (Shanghai), Inc., priority 2021, published 2025).

The target in one assay is T1, CDK4 (Homo sapiens, UniProt P11802).
T1 construct: endogenous in cells; host or cells: Calu-1
Put plainly: CDK4 percentage degradation in Calu-1 cells (immunoblotting). Format: cell-based. As to conditions: Calu-1 cells, 200 nM, 16 hours; read-out: CDK4 Degradation (200 nM). The gist of the method: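 CDK4 degradation was measured by immunoblotting. Cells were washed in cold PBS and lysed in RIPA buffer with inhibitors for 30 min at 4° C., then spun at 13,000 rpm to clear. After BCA protein determination, lysates were heated at 99° C. for 5 min in Laemmli buffer, resolved on SDS-PAGE, imaged on a ChemiDoc MP with ECL substrate, and band intensities quantified.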
In general terms: A western blot detects proteins with antibodies after separation by electrophoresis.

A further assay relates to cyclin D1. As to the kind of experiment: Cyclin D1 percentage degradation in Calu-1 cells (immunoblotting). Type of assay: cell-based. As to conditions: 200 nM, 16 hours. In a few lines: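 Cyclin D1 degradation was assessed by western blot. Clarified lysates, obtained by RIPA lysis with inhibitors and centrifugation at 13,000 rpm, were normalized by BCA protein assay and separated by SDS-PAGE. Bands were detected with Western ECL Substrate on a Bio-Rad ChemiDoc MP Imaging system and quantified in Image Lab software to derive percentage degradation.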

Where only a bound is given, the exact number is not on record here.

T1 sequence (P11802 2-303 limits assumed): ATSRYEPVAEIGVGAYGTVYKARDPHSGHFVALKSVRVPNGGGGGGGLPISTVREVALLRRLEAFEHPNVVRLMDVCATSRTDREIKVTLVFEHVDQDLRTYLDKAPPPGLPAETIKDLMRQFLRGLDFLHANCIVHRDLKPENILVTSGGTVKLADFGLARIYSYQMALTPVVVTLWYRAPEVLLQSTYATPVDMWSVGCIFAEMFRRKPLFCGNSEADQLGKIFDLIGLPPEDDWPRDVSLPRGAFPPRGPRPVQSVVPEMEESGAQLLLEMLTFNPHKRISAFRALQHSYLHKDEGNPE
T1 sequence (P24385 whole entry partner): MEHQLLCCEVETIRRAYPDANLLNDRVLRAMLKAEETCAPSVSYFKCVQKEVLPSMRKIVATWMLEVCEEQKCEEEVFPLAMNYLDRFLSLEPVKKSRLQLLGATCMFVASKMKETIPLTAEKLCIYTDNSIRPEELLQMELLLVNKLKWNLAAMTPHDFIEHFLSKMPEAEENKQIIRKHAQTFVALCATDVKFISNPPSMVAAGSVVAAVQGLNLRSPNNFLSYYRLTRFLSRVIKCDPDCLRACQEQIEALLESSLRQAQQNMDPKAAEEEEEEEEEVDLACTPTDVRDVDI
T1 sequence (Q16531 2-1140 limits assumed, further chain): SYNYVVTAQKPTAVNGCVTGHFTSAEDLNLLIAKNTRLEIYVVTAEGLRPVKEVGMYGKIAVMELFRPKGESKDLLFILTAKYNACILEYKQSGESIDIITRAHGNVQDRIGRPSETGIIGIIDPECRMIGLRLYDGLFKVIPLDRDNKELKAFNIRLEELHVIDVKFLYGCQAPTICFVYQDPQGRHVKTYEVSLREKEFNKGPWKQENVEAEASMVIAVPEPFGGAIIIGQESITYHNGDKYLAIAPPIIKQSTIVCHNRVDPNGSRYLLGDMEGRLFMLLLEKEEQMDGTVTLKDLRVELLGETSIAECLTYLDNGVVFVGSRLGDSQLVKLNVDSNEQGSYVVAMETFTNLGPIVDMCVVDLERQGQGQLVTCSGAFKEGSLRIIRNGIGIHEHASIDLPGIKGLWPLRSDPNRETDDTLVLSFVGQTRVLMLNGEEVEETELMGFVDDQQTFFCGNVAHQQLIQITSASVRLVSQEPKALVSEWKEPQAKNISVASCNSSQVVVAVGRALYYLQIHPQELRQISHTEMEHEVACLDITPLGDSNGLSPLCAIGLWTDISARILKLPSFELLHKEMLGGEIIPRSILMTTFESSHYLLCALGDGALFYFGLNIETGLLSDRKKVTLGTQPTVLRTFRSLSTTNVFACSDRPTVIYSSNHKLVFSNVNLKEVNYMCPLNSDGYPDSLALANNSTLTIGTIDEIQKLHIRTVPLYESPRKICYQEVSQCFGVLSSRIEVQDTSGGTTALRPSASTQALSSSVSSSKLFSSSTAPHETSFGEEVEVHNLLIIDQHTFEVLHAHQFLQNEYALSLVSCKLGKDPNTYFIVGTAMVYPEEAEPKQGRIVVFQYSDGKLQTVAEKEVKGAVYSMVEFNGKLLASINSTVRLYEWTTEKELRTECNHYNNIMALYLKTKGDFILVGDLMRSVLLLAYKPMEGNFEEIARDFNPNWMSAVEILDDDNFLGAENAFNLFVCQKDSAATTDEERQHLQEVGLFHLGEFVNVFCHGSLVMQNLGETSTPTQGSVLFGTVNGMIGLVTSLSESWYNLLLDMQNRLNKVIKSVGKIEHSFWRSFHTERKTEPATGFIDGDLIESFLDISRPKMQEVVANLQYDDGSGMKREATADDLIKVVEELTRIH

In the case of `CC(=O)c1c(C)c2cnc(Nc3ccc(N4CCN(CC(=O)NCCOCCOCCC(=O)Nc5ccccc5C(=O)Nc5nc(C6CC6)c(C)s5)CC4)cn3)nc2n(C2CCCC2)c1=O` [CPD-057, 2-(3-(2-(2-(2-(4-(6-((6-Acetyl-8-cyclopentyl-5-methyl-7-oxo-7,8-dihydropyrido[2,3-d]pyrimidin-2-yl)amino)pyridin-3-yl)piperazin-1-yl)acetamido)ethoxy)ethoxy)propanamido)-N-(4-cyclopropyl-5-methylthiazol-2-yl)benzamide], on CDK4, the inhibition at 0.2 µM lay in the range of 50 to 80%. The “CyclinD1 Degradation (200 nM)” value in the assay on cyclin D1 is reported as “A (protein percentage degradation >=80%)”.
`CC(=O)c1c(C)c2cnc(Nc3ccc(N4CCN(CC(=O)NCCOCCOCCC(=O)Nc5ccccc5C(=O)Nc5nc(C)ns5)CC4)cn3)nc2n(C2CCCC2)c1=O` [CPD-058, 2-(3-(2-(2-(2-(4-(6-((6-Acetyl-8-cyclopentyl-5-methyl-7-oxo-7,8-dihydropyrido[2,3-d]pyrimidin-2-yl)amino)pyridin-3-yl)piperazin-1-yl)acetamido)ethoxy)ethoxy)propanamido)-N-(3-methyl-1,2,4-thiadiazol-5-yl)benzamide]: at CDK4, the inhibition at 0.2 µM is below 30%. Moreover, in the assay with cyclin D1, the “CyclinD1 Degradation (200 nM)” value was “D (protein percentage degradation <30%)”.
Regarding `CC(=O)c1c(C)c2cnc(Nc3ccc(N4CCN(CC(=O)NCCOCCOCCC(=O)Nc5ccccc5C(=O)Nc5nc(C6CC6)ns5)CC4)cn3)nc2n(C2CCCC2)c1=O` [CPD-059, 2-(3-(2-(2-(2-(4-(6-((6-Acetyl-8-cyclopentyl-5-methyl-7-oxo-7,8-dihydropyrido[2,3-d]pyrimidin-2-yl)amino)pyridin-3-yl)piperazin-1-yl)acetamido)ethoxy)ethoxy)propanamido)-N-(3-cyclopropyl-1,2,4-thiadiazol-5-yl)benzamide], at CDK4, the inhibition at 0.2 µM is below 30%. Besides, in the assay on cyclin D1, the “CyclinD1 Degradation (200 nM)” value is reported as “D (protein percentage degradation <30%)”.
The matching figures for `CC(=O)c1c(C)c2cnc(Nc3ccc(N4CCN(CC(=O)NCCOCCOCCC(=O)Nc5ccccc5C(=O)Nc5ccc(C)nc5)CC4)cn3)nc2n(C2CCCC2)c1=O` [CPD-060, 2-(3-(2-(2-(2-(4-(6-((6-Acetyl-8-cyclopentyl-5-methyl-7-oxo-7,8-dihydropyrido[2,3-d]pyrimidin-2-yl)amino)pyridin-3-yl)piperazin-1-yl)acetamido)ethoxy)ethoxy)propanamido)-N-(6-methylpyridin-3-yl)benzamide]: 50 to 80% and “A (protein percentage degradation >=80%)”.
Taken in the same sequence, the figures for `CC(=O)c1c(C)c2cnc(Nc3ccc(N4CCN(CC(=O)NCCOCCOCCC(=O)Nc5ccccc5C(=O)Nc5ccc(C)cn5)CC4)cn3)nc2n(C2CCCC2)c1=O` [CPD-061, 2-(3-(2-(2-(2-(4-(6-((6-Acetyl-8-cyclopentyl-5-methyl-7-oxo-7,8-dihydropyrido[2,3-d]pyrimidin-2-yl)amino)pyridin-3-yl)piperazin-1-yl)acetamido)ethoxy)ethoxy)propanamido)-N-(5-methylpyridin-2-yl)benzamide] were 50 to 80% and “A (protein percentage degradation >=80%)”.
As to `CC(=O)c1c(C)c2cnc(Nc3ccc(N4CCN(CC(=O)NCCOCCOCCC(=O)Nc5ccccc5C(=O)Nc5nc(C6CCOCC6)c(C)s5)CC4)cn3)nc2n(C2CCCC2)c1=O` [CPD-062, 2-(3-(2-(2-(2-(4-(6-((6-Acetyl-8-cyclopentyl-5-methyl-7-oxo-7,8-dihydropyrido[2,3-d]pyrimidin-2-yl)amino)pyridin-3-yl)piperazin-1-yl)acetamido)ethoxy)ethoxy)propanamido)-N-(5-methyl-4-(tetrahydro-2H-pyran-4-yl)thiazol-2-yl)benzamide], the inhibition at 0.2 µM at CDK4 is below 30%. The “CyclinD1 Degradation (200 nM)” value in the assay with cyclin D1 was “D (protein percentage degradation <30%)”.
The matching figures for `CC(=O)c1c(C)c2cnc(Nc3ccc(N4CCN(CC(=O)NCCOCCOCCC(=O)Nc5ccccc5C(=O)Nc5cn(C)cn5)CC4)cn3)nc2n(C2CCCC2)c1=O` [CPD-063, 2-(3-(2-(2-(2-(4-(6-((6-Acetyl-8-cyclopentyl-5-methyl-7-oxo-7,8-dihydropyrido[2,3-d]pyrimidin-2-yl)amino)pyridin-3-yl)piperazin-1-yl)acetamido)ethoxy)ethoxy)propanamido)-N-(1-methyl-1H-imidazol-4-yl)benzamide]: below 30% and “D (protein percentage degradation <30%)”.
Taken in the same sequence, the figures for `CC(=O)c1c(C)c2cnc(Nc3ccc(N4CCN(CC(=O)NCCOCCOCCC(=O)Nc5ccccc5C(=O)Nc5ncc(C)[nH]5)CC4)cn3)nc2n(C2CCCC2)c1=O` [CPD-064, 2-(3-(2-(2-(2-(4-(6-((6-Acetyl-8-cyclopentyl-5-methyl-7-oxo-7,8-dihydropyrido[2,3-d]pyrimidin-2-yl)amino)pyridin-3-yl)piperazin-1-yl)acetamido)ethoxy)ethoxy)propanamido)-N-(5-methyl-1H-imidazol-2-yl)benzamide] were below 30% and “D (protein percentage degradation <30%)”.
Taken in the same sequence, the figures for `CC(=O)c1c(C)c2cnc(Nc3ccc(N4CCN(CC(=O)NCCOCCOCCC(=O)Nc5ccccc5C(=O)Nc5ccc(C)s5)CC4)cn3)nc2n(C2CCCC2)c1=O` [CPD-065, 2-(3-(2-(2-(2-(4-(6-((6-Acetyl-8-cyclopentyl-5-methyl-7-oxo-7,8-dihydropyrido[2,3-d]pyrimidin-2-yl)amino)pyridin-3-yl)piperazin-1-yl)acetamido)ethoxy)ethoxy)propanamido)-N-(5-methylthiophen-2-yl)benzamide] were 50 to 80% and “A (protein percentage degradation >=80%)”.
Consider `CC(=O)c1c(C)c2cnc(Nc3ccc(N4CCN(CC(=O)NCCOCCOCCC(=O)Nc5ccccc5C(=O)Nc5ncc(C)o5)CC4)cn3)nc2n(C2CCCC2)c1=O` [CPD-066, 2-(3-(2-(2-(2-(4-(6-((6-Acetyl-8-cyclopentyl-5-methyl-7-oxo-7,8-dihydropyrido[2,3-d]pyrimidin-2-yl)amino)pyridin-3-yl)piperazin-1-yl)acetamido)ethoxy)ethoxy)propanamido)-N-(5-methyloxazol-2-yl)benzamide], for which the inhibition at 0.2 µM at CDK4 is below 30%. In addition, the “CyclinD1 Degradation (200 nM)” value in the assay on cyclin D1 is given as “D (protein percentage degradation <30%)”.
The matching figures for `CC(=O)c1c(C)c2cnc(Nc3ccc(N4CCN(CC(=O)NCCOCCOCCNc5cccc(C(=O)Nc6cc(C)n(C)n6)c5C)CC4)cn3)nc2n(C2CCCC2)c1=O` [CPD-067, 3-((2-(2-(2-(2-(4-(6-((6-Acetyl-8-cyclopentyl-5-methyl-7-oxo-7,8-dihydropyrido[2,3-d]pyrimidin-2-yl)amino)pyridin-3-yl)piperazin-1-yl)acetamido)ethoxy)ethoxy)ethyl)amino)-N-(1,5-dimethyl-1H-pyrazol-3-yl)-2-methylbenzamide]: 50 to 80% and “A (protein percentage degradation >=80%)”.
On to `CC(=O)c1c(C)c2cnc(Nc3ccc(N4CCN(CC(=O)NCCOCCOCCC(=O)Nc5ccccc5C(=O)Nc5ccn(C)n5)CC4)cn3)nc2n(C2CCCC2)c1=O` [CPD-068, 2-(3-(2-(2-(2-(4-(6-((6-Acetyl-8-cyclopentyl-5-methyl-7-oxo-7,8-dihydropyrido[2,3-d]pyrimidin-2-yl)amino)pyridin-3-yl)piperazin-1-yl)acetamido)ethoxy)ethoxy)propanamido)-N-(1-methyl-1H-pyrazol-3-yl)benzamide], for which, at CDK4, the inhibition at 0.2 µM was 50 to 80%. The “CyclinD1 Degradation (200 nM)” value in the assay on cyclin D1 is on record as “A (protein percentage degradation >=80%)”.
